Data: patent US20240218344A1, “LIQUID THROMBIN REAGENT” (Instrumentation Laboratory Company, priority 2022, published 2024)
Structures can show the parent of a compound that is named as a salt.

Key:
Assay type in all cases: biochemical
bovine thrombin [1] = target: bovine thrombin (Bos taurus, UniProt P00735); assay: Stability of liquid thrombin reagent with alkylated guanidine derivatives, clotting assay; conditions: 25 mM guanidine derivative, approximately 75 U/mL bovine thrombin, MES pH 6.3, stored at 37° C. for 7 or 14 days; FIG. 5
Procedure: (§1) In the clotting assay, the liquid thrombin reagent was diluted with an aqueous buffer to a final thrombin concentration of within 5 to 15 U/mL of thrombin. Then, 20 to 40 microliters (μL) of the diluted liquid thrombin reagent was mixed with 80 μL of a reaction buffer containing 20 mM HEPES, pH 7.4, containing 150 mM NaCl and 0.5% BSA (bovine serum albumin). After an incubation period of 60 to 90 seconds at 37° C., 80 μL of normal pooled plasma was added to the mixture and the time to clot was determined using a threshold algorithm.
The effects of guanidine derivatives were analyzed using a clotting assay. In this experiment, liquid thrombin reagents containing bovine thrombin were diluted to a final concentration of approximately 75 U/mL thrombin with an aqueous buffer comprising a MES buffer containing 20 mM MES, pH 6.3, and 0.1% ProClin™ 300, with and without 25 mM of 1-methylguanidine (MMG), 25 mM of 1.1-dimethylguanidine (DMG) and 25 mM of 1,1-diethylguanidine (DEG).
Liquid thrombin reagents of the type described herein containing guanidine derivatives, and one without a guanidine derivative, were stored at 37° C. for 0, 7, and 14 days and tested using the clotting assay after mixing with normal pooled plasma.

factor Xa = assay: Factor Xa chromogenic assay with guanidine and guanidine derivatives; conditions: dilution series in water, 6 nkat/mL factor Xa, substrate S-2732, 405 nm; FIG. 4
Procedure: In this experiment, the effects of guanidine sulfate and the guanidine derivatives: 1-methylguanidine sulfate, 1,1-dimethylguanidine sulfate, 1,1-diethylguanidine, and N-benzyl, N-methylguanidine sulfate were analyzed using a chromogenic assay. A series of dilutions was prepared in water with guanidine or a guanidine derivative of the type described herein. 40 μL of each of the guanidine or guanidine derivatives were mixed for 20 to 60 seconds with 40 μL of 6 nanokatal per milliliter (nkat/mL) factor Xa diluted in 20 mM HEPES, pH 7.5 buffer. After an incubation period of 150 to 180 seconds, 100 μL of the factor Xa chromogenic substrate S-2732 (1.5 mM) was added to each of the guanidine and factor Xa mixtures and was chromogenically measured at 405 nm milli-absorbance per minute (mAbs/min) after a 20 second delay.

bovine thrombin [2] = assay: Stability of liquid thrombin reagent with apixaban, clotting assay; conditions: 500 ng/ml apixaban, approximately 100 U/mL bovine thrombin, stored at 45° C. for 0-14 days; FIG. 3
Procedure: In the clotting assay, the liquid thrombin reagent was diluted with an aqueous buffer to a final thrombin concentration of within 5 to 15 U/mL of thrombin. Then, 20 to 40 microliters (μL) of the diluted liquid thrombin reagent was mixed with 80 μL of a reaction buffer containing 20 mM HEPES, pH 7.4, containing 150 mM NaCl and 0.5% BSA (bovine serum albumin). After an incubation period of 60 to 90 seconds at 37° C., 80 μL of normal pooled plasma was added to the mixture and the time to clot was determined using a threshold algorithm. In this experiment, the effects of the direct factor Xa inhibitor apixaban was analyzed using a clotting assay. Liquid thrombin reagent containing low purity grade bovine thrombin was diluted to a final concentration of approximately 100 U/mL thrombin in an aqueous buffer containing 20 mM MES, pH 6.1, 100 mM NaCl, 25 mM sodium acetate, 25 mM sodium lactate, 5 mM CaCl2, 0.5% BSA, and 0.4 g/L NaN3. Apixaban was dissolved in dimethyl sulfoxide (DMSO) and diluted to a final concentration of 500 ng/ml apixaban in a sample of the liquid thrombin reagent. Liquid thrombin reagents with and without apixaban were stored at 45° C. for 0, 2, 4, 7, 10 and 14 days, and tested in quadruplicate by the clotting assay after mixture with normal pooled plasma. […]

thrombin [3] = assay: Alkylated guanidine concentrations for thrombin stability, clotting assay; conditions: less than 20 mM DMG, 7 U/mL thrombin, 37° C. for 20 days versus 2 to 8° C.; FIG. 6
Procedure: as §1
A series of liquid thrombin reagents containing dimethylguanidine (DMG) were analyzed using a clotting assay. A series of liquid thrombin reagents containing 7 U/mL liquid thrombin were prepared in an aqueous buffer containing 20 mM MES, pH 6.3, 0.1% ProClin™ 300, and a final concentration of 5, 10, 15, 20, 25, or 30 mM DMG. The resulting liquid thrombin reagents were stored at 37° C for 20 days, and the remaining thrombin activity was compared to the liquid thrombin reagent containing the same concentration of guanidine derivative stored at 2 to 8° C. for 20 days.

thrombin [4] = assay: Thrombin concentrations for liquid thrombin reagent stability, clotting assay; conditions: 30 mM DMG, 37° C. for 7 days, FIG. 7
Procedure: as §1
The effect of guanidine derivatives on a series of thrombin concentrations were analyzed using a clotting assay. A series of liquid thrombin reagents containing 30 mM DMG were prepared by diluting a 100 U/mL thrombin liquid thrombin reagent in MES buffer (containing 30 mM DMG, 20 mM MES, pH 6.3, and 0.1% ProClin™ 300) with MES buffer to final concentrations of 70, 56, 42, 28, 14 or 7 U/mL thrombin. The liquid thrombin reagents were stored at 37° C. for 7 days and tested for thrombin activity using the clotting assay.

**Q.** For `CNC(=N)N.O=S(=O)(O)O` [1,1 methylguanidine sulfate, 1-methylguanidine sulfate], which “thrombin activity after storage” value (bovine thrombin [1]) is on record?
**A.** little or no decrease in thrombin activity

**Q.** `CN(Cc1ccccc1)C(=N)N.O=S(=O)(O)O` [N-benzyl N-methylguanidine sulfate, N-benzyl, N-methylguanidine sulfate] was tested. Which “factor Xa inhibition” value (factor Xa) did it give?
**A.** reduced factor Xa inhibition

**Q.** With `COc1ccc(-n2nc(C(N)=O)c3c2C(=O)N(c2ccc(N4CCCCC4=O)cc2)CC3)cc1` [apixaban] as the molecule, how does the “stability of the liquid thrombin reagent (time-to-clot versus reagent without apixaban)” value (bovine thrombin [2]) read?
**A.** improves the stability of the liquid thrombin reagent in the long term

**Q.** `CCN(CC)C(=N)N` [diethylguanidine sulfate, 1,1-diethylguanidine] was tested. Which “factor Xa inhibition” value (factor Xa) did it give?
**A.** largest extent of factor Xa inhibition

**Q.** And the “thrombin activity after storage” value (bovine thrombin [1])?
**A.** little or no decrease in thrombin activity

**Q.** Which results are given for `CN(C)C(=N)N.O=S(=O)(O)O` [dimethylguanidine sulfate, 1,1-dimethylguanidine sulfate]?
**A.** factor Xa inhibition (factor Xa): largest extent of factor Xa inhibition; thrombin activity after storage (bovine thrombin [1]): little or no decrease in thrombin activity; remaining thrombin activity (thrombin [3]): declined; remaining thrombin activity (thrombin [4]; less than about 20 U/mL thrombin): declined; remaining thrombin activity (thrombin [4]; more than about 20 U/mL thrombin): did not decline significantly

**Q.** Which “factor Xa inhibition” value (factor Xa) does the source give for `N=C(N)N.N=C(N)N.O=S(=O)(O)O` [guanidine sulfate, reference compound] here?
**A.** least reduction in factor Xa inhibition
